Measurements as given in patent EP4722219A1 (Gan & Lee Pharmaceuticals Co., Ltd., priority 2023, dated 2024).

Key:
Type in all cases: cell-based
[1] = target: T1, SMARCA4 (Homo sapiens, UniProt P51532); experiment: SMARCA4 degradation in SW1573 cells (Western blot); parameters: endogenous in cells; host or cells: SW1573; conditions: 24 hours; for Dmax at 0.001 µM / Dmax at 0.08 µM: read-out: Degradation rate of SMARCA4 in SW1573 cells (%)
Description: SW1573 cells were seeded at 2x10^5Cells/well in a 6-well plate. 2 mL of EMEM medium supplemented with 10% FBS was added to each well and was incubated overnight to allow cell attachment. […] The cells were returned to the incubator and incubated for another 24 hours.
(§1) After 24 hours, cells were harvested, the medium was aspirated, and the cells were rinsed once with 1 mL/well PBS. The PBS was aspirated, and 40 µL/well of RIPA lysis buffer containing protease inhibitors was added. After lysis and centrifugation, total protein extracts were obtained, and protein concentration in the extracts was determined by BCA assay. Protein electrophoresis was performed by SDS-PAGE, followed by constant voltage electrophoresis at 100 V for 60 minutes and the protein was then transferred to a PVDF membrane. The PVDF membrane was blocked in 5% skim milk powder for 1 hour at room temperature. […] After washing the membrane, secondary antibodies were added and incubated at room temperature for 1 hour (protected from the light). After washing, the membrane was exposed using an Odyssey luminometer. Grayscale analysis of bands was performed using Image Studio software.
(§2) The degradation rate (%) of SMARCA2/4 by the PROTAC compounds of the present invention in HeLa cells and SW1573 cells is shown in Table 10. Table 10 Degradation rate of SMARCA2/4 by PROTAC compounds of the present invention in HeLa cells and SW1573 cells (%)

[2] = target: T2, SMARCA2 (Homo sapiens, UniProt P51531); experiment: SMARCA2 degradation in HeLa cells (Western blot); parameters: endogenous in cells; conditions: 4 hours
T2 sequence (P51531 whole entry): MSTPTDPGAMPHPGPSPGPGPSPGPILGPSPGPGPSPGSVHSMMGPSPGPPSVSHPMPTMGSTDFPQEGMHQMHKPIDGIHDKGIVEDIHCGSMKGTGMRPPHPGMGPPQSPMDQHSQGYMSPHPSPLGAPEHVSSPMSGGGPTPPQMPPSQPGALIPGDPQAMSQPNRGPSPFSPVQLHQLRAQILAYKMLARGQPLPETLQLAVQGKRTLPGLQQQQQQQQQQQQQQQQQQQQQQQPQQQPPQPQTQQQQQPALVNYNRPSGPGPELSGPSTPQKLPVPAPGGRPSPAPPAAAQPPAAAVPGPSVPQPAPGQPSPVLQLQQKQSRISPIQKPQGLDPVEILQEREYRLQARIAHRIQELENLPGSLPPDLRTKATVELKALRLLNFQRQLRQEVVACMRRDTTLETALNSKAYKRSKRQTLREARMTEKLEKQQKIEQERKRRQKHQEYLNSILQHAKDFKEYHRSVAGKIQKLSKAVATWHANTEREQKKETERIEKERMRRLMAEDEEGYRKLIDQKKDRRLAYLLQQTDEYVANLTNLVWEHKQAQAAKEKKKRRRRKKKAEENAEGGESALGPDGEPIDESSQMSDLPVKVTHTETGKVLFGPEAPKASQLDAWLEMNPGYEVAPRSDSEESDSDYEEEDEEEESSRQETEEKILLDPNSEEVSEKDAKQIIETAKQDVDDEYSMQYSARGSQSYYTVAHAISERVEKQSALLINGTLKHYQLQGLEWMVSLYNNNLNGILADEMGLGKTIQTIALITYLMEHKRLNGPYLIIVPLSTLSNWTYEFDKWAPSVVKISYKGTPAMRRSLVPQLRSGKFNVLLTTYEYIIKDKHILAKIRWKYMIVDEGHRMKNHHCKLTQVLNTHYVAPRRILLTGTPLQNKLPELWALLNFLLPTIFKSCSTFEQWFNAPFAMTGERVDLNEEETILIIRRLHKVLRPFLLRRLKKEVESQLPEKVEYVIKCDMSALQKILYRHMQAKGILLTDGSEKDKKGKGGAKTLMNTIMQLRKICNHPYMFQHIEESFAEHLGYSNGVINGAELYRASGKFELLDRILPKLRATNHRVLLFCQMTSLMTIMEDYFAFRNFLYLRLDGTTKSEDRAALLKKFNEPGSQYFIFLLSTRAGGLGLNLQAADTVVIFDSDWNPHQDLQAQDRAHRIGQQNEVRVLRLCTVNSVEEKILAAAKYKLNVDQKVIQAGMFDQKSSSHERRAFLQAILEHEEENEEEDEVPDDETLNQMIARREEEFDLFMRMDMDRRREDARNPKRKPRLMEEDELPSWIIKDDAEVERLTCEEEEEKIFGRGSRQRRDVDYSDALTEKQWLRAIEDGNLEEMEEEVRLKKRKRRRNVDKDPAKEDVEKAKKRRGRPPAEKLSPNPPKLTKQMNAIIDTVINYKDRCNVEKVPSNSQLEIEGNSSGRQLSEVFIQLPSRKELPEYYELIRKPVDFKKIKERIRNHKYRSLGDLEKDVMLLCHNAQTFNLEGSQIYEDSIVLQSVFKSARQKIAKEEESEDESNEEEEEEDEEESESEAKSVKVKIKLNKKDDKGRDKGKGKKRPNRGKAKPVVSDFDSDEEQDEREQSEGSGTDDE
Description: (§3) Test Example 10 Degradation rate (%) of SMARCA2/4 by the PROTAC compounds of the present invention in HeLa cells and SW1573 cells
(§4) HeLa cells were seeded at 1.2 x 10^5 cells/well in a 6-well plate. 2 mL of EMEM medium supplemented with 10% FBS was added to each well and the culture dish was incubated overnight to allow the cells to adhere. The next day, 1 µL of 160 µM and 1 µL of 2 µM compound were added to the corresponding wells, resulting in final compound concentrations of 80 nM and 1 nM, respectively, and a final DMSO concentration of 0.05%. The cells were returned to the incubator and incubated for another 4 hours.
(§5) After 4 hours, cells were harvested, the culture medium was aspirated, and the cells were rinsed once with 1 mL/well PBS. The PBS was aspirated, and 40 µL/well of RIPA lysis buffer containing protease inhibitors was added. After lysis and centrifugation, total protein extracts were obtained, and protein concentration in the extracts was determined by BCA assay. Protein electrophoresis was performed by SDS-PAGE, followed by constant voltage electrophoresis at 100 V for 60 minutes and the protein was then transferred to a PVDF membrane. The PVDF membrane was blocked in 5% skim milk powder for 1 hour at room temperature. Primary antibodies (SMARCA2: CST#11966S, SMARCA4: CST#49360S, GAPDH: CST#5174S) were added and incubated overnight at 4°C. After washing the membrane, secondary antibodies were added and incubated at room temperature for 1 hour (protected from the light). After washing, the membrane was exposed using an Odyssey luminometer. Grayscale analysis of bands was performed using Image Studio software.
as §2

[3] = target: T1, SMARCA4; experiment: SMARCA4 degradation in HeLa cells (Western blot); parameters: endogenous in cells; conditions: 4 hours; for Dmax at 0.001 µM / Dmax at 0.08 µM: read-out: Degradation rate of SMARCA4 in HeLa cells (%)
Description: HeLa cells were seeded at 1.2 x 10^5 cells/well in a 6-well plate. 2 mL of EMEM medium supplemented with 10% FBS was added to each well and the culture dish was incubated overnight to allow the cells to adhere. […] The cells were returned to the incubator and incubated for another 4 hours.
as §1, with “After 4 hours, cells” for “After 24 hours, cells”, “harvested, the culture medium was” for “harvested, the medium was”
as §2

[4] = target: T2, SMARCA2; experiment: SMARCA2 degradation in SW1573 cells (Western blot); parameters: endogenous in cells; host or cells: SW1573; conditions: 24 hours
Description: as §3
as §4, with “SW1573” for “HeLa”, “2x10^5Cells/well” for “1.2 x 10^5 cells/well”, “and” for “and the culture dish”, “cell attachment.” for “the cells to adhere.”, “wells for treatment,” for “wells,”, “24” for “4”
as §5, with “After 24” for “After 4”, “the” for “the culture”
as §2

T1 sequence (P51532 whole entry): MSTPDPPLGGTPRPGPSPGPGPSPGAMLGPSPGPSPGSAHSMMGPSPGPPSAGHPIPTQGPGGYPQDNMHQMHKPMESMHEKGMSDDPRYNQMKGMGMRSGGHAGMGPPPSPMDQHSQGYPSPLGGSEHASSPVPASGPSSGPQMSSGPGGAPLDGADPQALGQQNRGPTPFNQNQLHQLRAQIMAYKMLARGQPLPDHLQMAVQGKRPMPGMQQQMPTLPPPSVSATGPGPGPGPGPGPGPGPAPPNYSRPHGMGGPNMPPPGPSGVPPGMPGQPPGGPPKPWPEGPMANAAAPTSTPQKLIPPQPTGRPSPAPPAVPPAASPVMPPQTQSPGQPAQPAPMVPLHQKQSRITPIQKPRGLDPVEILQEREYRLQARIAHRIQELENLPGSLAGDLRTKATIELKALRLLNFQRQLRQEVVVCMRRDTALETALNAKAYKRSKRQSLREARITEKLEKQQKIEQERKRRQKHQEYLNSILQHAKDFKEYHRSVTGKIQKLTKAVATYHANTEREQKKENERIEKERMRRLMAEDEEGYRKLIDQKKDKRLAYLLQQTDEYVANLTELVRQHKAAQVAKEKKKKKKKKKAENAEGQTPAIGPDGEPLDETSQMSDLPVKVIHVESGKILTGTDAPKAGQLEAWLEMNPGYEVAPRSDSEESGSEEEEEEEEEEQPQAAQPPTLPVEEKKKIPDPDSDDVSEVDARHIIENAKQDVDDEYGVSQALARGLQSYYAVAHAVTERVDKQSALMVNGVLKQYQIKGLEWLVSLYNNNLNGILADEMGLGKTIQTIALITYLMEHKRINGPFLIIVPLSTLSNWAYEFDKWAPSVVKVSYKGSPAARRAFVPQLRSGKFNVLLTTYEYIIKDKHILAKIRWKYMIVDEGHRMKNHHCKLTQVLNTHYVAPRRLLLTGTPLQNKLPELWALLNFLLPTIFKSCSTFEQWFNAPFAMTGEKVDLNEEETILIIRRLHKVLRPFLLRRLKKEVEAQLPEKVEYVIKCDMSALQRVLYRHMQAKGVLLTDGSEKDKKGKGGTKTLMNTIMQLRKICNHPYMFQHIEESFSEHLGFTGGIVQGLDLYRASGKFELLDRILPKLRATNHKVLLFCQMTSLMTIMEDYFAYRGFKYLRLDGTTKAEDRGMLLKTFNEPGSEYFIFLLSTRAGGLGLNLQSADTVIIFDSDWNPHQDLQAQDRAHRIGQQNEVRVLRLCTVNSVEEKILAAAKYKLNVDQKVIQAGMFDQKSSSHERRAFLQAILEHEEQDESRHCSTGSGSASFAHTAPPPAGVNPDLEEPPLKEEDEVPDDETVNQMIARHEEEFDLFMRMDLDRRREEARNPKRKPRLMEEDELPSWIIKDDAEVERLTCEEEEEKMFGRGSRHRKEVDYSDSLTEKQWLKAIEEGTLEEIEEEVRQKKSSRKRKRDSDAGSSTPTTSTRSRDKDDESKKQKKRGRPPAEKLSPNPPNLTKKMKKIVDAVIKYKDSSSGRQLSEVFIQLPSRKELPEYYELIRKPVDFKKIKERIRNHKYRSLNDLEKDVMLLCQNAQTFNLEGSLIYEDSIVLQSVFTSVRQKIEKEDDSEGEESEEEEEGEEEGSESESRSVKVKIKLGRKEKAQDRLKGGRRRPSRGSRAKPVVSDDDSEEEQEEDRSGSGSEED

Dmax at 0.001 µM ([1]; 1 nM) [%] | Dmax at 0.08 µM ([1]; 80 nM) [%] | Degradation rate of SMARCA2 in HeLa cells (%) ([2]; 1 nM) | Degradation rate of SMARCA2 in HeLa cells (%) ([2]; 80 nM) | Dmax at 0.001 µM ([3]; 1 nM) [%] | Dmax at 0.08 µM ([3]; 80 nM) [%] | Degradation rate of SMARCA2 in SW1573 cells (%) ([4]; 1 nM) | Degradation rate of SMARCA2 in SW1573 cells (%) ([4]; 80 nM) | Degradation rate of SMARCA4 in SW1573 cells (%) ([1]; 1 nM) | Degradation rate of SMARCA4 in SW1573 cells (%) ([1]; 80 nM) | Degradation rate of SMARCA4 in HeLa cells (%) ([3]; 1 nM) | Degradation rate of SMARCA4 in HeLa cells (%) ([3]; 80 nM) | Structure (SMILES)
94 | 100 | 95 | 98 | 92 | 99 | 98 | 100 | – | – | – | – | Nc1nnc(-c2ccccc2O)cc1C#CC1CCC2(CC1)CC(N1CCC3(CC1)CCC1(CC3)COc3c1ccc1c3CN(C3CCC(=O)NC3=O)C1=O)C2 (centres unmarked) [SM-P-2]
– | – | 38 | 96 | – | – | 32 | 88 | -11 | 32 | 19 | 65 | Nc1nnc(-c2ccccc2O)cc1C#CC1CCC2(CC1)CC(N1CCN3c4ccc(C(=O)N[C@H]5CCC(=O)NC5=O)cc4OCC[C@H]3C1)C2 (stereo partly drawn) [SM-P-13, (S)-3-(7-((3-amino-6-(2-hydroxyphenyl)pyridazin-4-yl)ethynyl)spiro[3.5]nonan-2-yl)-N-((S)-2,6-dioxopyrimidin-3-yl)-2,3,4,4a,5,6-hexahydro-1H-benzo[b]pyrazino[1,2-d] [1,4]oxythiophene-9-carboxamide]
– | – | 23 | 86 | – | – | 12 | 76 | -56 | 22 | 32 | 65 | Nc1nnc(-c2ccccc2O)cc1C#CC1CCC2(CC1)CC(N1CCN3c4ccc(C(=O)N[C@H]5CCC(=O)NC5=O)cc4OC[C@@H]3C1)C2 (some centres unmarked) [SM-P-20]
-29 | 39 | 7 | 68 | -52 | 28 | 1 | 66 | – | – | – | – | Nc1nnc(-c2ccccc2O)cc1C#CC1CCC2(CC1)CC(N1CCC3(CCc4cc(C(=O)N[C@H]5CCC(=O)NC5=O)c(F)cc4O3)CC1)C2 (some centres unmarked) [SM-P-7]
40 | 82 | 51 | 90 | 22 | 79 | 59 | 88 | – | – | – | – | Cn1c(=O)n(C2CCC(=O)NC2=O)c2ccc3c(c21)OCC31CCN(C(=O)[C@H]2CC[C@H](Cn3cc(-c4cc(-c5ccccc5O)nnc4N)cn3)CC2)CC1 (some centres unmarked) [SM-P-27, 3-(1'-((1r,4r)-4-((4-(3-amino-6-(2-hydroxyphenyl)pyridazin-4-yl)-1H-pyrazol-1-yl)methyl)cyclohexane-1-carbonyl)-1-methyl-2-oxo-1,2-dihvdro-3H,7H-spiro[benzofuro[6,7-d]imidazole-6,4'-piperidin]-3-yl)piperidine-2,6-dione]
-21 | -10 | 10 | 53 | 6 | 42 | 11 | 50 | – | – | – | – | Nc1nnc(-c2ccccc2O)cc1C#CC1CCC2(CC1)CC(N1CCC3(CC1)Cc1ccc(NC4CCC(=O)NC4=O)cc1O3)C2 (centres unmarked) [SM-P-25, 3-((1'-(7-((3-amino-6-(2-hydroxyphenyl)pyridazin-4-yl)ethynyl)spiro[3.5]nonan-2-yl)-3H-spiro[benzofuran-2,4'-piperidin]-6-yl)amino)piperidine-2,6-dione]
12 | 11 | -10 | 29 | -34 | -1 | -29 | -75 | – | – | – | – | Nc1nnc(-c2ccccc2O)cc1C#CC1CCC2(CC1)CC(N1CCC3(CCc4ccc(NC5CCC(=O)NC5=O)cc4O3)CC1)C2 (centres unmarked) [SM-P-24, 3-((1'-(7-((3-amino-6-(2-hydroxyphenyl)pyridazin-4-yl)ethynyl)spiro[3.5]nonan-2-yl)spiro[chromane-2,4'-piperidin]-7-yl)amino)piperidine-2,6-dione]
